Test results: article PMC12067442 (Journal of Medicinal Chemistry, 2025)
Values joined by “and” are separate entries in the source; they are usually repeats but may differ in a detail not shown here. Equal entries are not always repeated.

Assays:
[1] = biological target: T1, norepinephrine transporter (NET, SLC6A2) (Homo sapiens, UniProt P23975); assay: radioligand displacement assay on NET (Eurofins Cerep SA); format: binding; details: for inhibition at 10 µM: read-out: % Inhibition @ 10 µM on NET; for inhibition at 0.01 µM: read-out: % Inhibition @ 10 nM on NET; for inhibition at 0.1 µM: read-out: % Inhibition @ 100 nM on NET
T1 construct: purchased Eurofins Cerep SA

[2] = biological target: T2, dopamine transporter (DAT, SLC6A3) (Homo sapiens, UniProt Q01959); assay: radioligand displacement assay on DAT (Eurofins Cerep SA); format: binding; details: for inhibition at 10 µM: read-out: % Inhibition @ 10 µM on DAT; for inhibition at 0.1 µM: read-out: % Inhibition @ 100 nM on DAT
T2 construct: purchased Eurofins Cerep SA

[3] = biological target: T3, serotonine (5-HT) transporter (SERT, SLC6A4) (Homo sapiens, UniProt P31645); assay: radioligand displacement assay on SERT (Eurofins Cerep SA); format: binding; details: for inhibition at 10 µM: read-out: % Inhibition @ 10 µM on SERT; for inhibition at 0.1 µM: read-out: % Inhibition @ 100 nM on SERT
T3 construct: purchased Eurofins Cerep SA

[4] = system: dopamine (DA) uptake in PC12 cells; assay: cells; details: Rattus norvegicus, PC-12, 2 h, read-out: IC50 (nM) - DA Uptake Inhibition
Description: The system was operated in positive mode. […] MS peaks were quantified using a calibration curve.

[5] = biological target: T4, σ-1R (Homo sapiens, UniProt Q99720); assay: radioligand displacement assay on σ-1R (Eurofins Cerep SA); format: binding; details: estimated from duplicate dilution series; read-out: IC50 (nM) sigma-1R
T4 construct: purchased Eurofins Cerep SA

[6] = biological target: T5, ACHe (Homo sapiens, UniProt P22303); assay: in vitro polypharmacology panel: ACHe; format: binding
T5 construct: purchased Eurofins Cerep SA

[7] = biological target: T6, Cannabinoid (Homo sapiens, UniProt P21554); assay: in vitro polypharmacology panel: Cannabinoid; format: binding
T6 construct: purchased Eurofins Cerep SA

[8] = biological target: T7, Cannabinoid 2 (Homo sapiens, UniProt P34972); assay: in vitro polypharmacology panel: Cannabinoid 2; format: binding
T7 construct: purchased Eurofins Cerep SA

[9] = biological target: T8, HEK-Gly-RA1 (Homo sapiens, UniProt P23415); assay: in vitro polypharmacology panel: HEK-Gly-RA1; format: binding
T8 construct: host or cells: HEK

[10] = biological target: T9, Dopamine D1 (Homo sapiens, UniProt P21728); assay: in vitro polypharmacology panel: Dopamine D1; format: binding
T9 construct: purchased Eurofins Cerep SA

[11] = biological target: T10, Dopamine D2s (Homo sapiens, UniProt P14416); assay: in vitro polypharmacology panel: Dopamine D2s; format: binding
T10 construct: purchased Eurofins Cerep SA

[12] = biological target: T11, Dopamine D2L (Homo sapiens, UniProt P14416); assay: in vitro polypharmacology panel: Dopamine D2L; format: binding
T11 construct: purchased Eurofins Cerep SA

[13] = biological target: T12, Dopamine D3 (Homo sapiens, UniProt P35462); assay: in vitro polypharmacology panel: Dopamine D3; format: binding
T12 construct: purchased Eurofins Cerep SA

[14] = biological target: T13, hERG (Homo sapiens, UniProt Q12809); assay: in vitro polypharmacology panel: hERG; format: binding
T13 construct: purchased Eurofins Cerep SA

[15] = biological target: T14, Histaminic H1 (Homo sapiens, UniProt P35367); assay: in vitro polypharmacology panel: Histaminic H1; format: binding
T14 construct: purchased Eurofins Cerep SA

[16] = biological target: T15, Histaminic H2 (Homo sapiens, UniProt P25021); assay: in vitro polypharmacology panel: Histaminic H2; format: binding
T15 construct: purchased Eurofins Cerep SA

[17] = biological target: T16, Histaminic H3 (Homo sapiens, UniProt Q9Y5N1); assay: in vitro polypharmacology panel: Histaminic H3; format: binding
T16 construct: purchased Eurofins Cerep SA

[18] = biological target: T17, Muscarinic M1 (Homo sapiens, UniProt P11229); assay: in vitro polypharmacology panel: Muscarinic M1; format: binding
T17 construct: purchased Eurofins Cerep SA

[19] = biological target: T18, Muscarinic M2 (Homo sapiens, UniProt P08172); assay: in vitro polypharmacology panel: Muscarinic M2; format: binding
T18 construct: purchased Eurofins Cerep SA

[20] = biological target: T19, Serotonin 5-HT 1A (Homo sapiens, UniProt P08908); assay: in vitro polypharmacology panel: Serotonin 5-HT 1A; format: binding
T19 construct: purchased Eurofins Cerep SA

[21] = biological target: T20, Serotonin 5-HT 1B (Homo sapiens, UniProt P28222); assay: in vitro polypharmacology panel: Serotonin 5-HT 1B; format: binding
T20 construct: purchased Eurofins Cerep SA

[22] = biological target: T21, Serotonin 5-HT 2A (Homo sapiens, UniProt P28223); assay: in vitro polypharmacology panel: Serotonin 5-HT 2A; format: binding
T21 construct: Eurofins Cerep SA (France), contract assay

[23] = biological target: T22, Serotonin 5-HT 2B (Homo sapiens, UniProt P41595); assay: in vitro polypharmacology panel: Serotonin 5-HT 2B; format: binding
T22 construct: Eurofins Cerep SA (France), contract assay

[24] = biological target: T23, Serotonin 5-HT 3 (Homo sapiens, UniProt P46098); assay: in vitro polypharmacology panel: Serotonin 5-HT 3; format: binding
T23 construct: Eurofins Cerep SA (France), contract assay

[25] = system: mice; assay: observation of mice after acute i.p. administration; format: in vivo, C57Bl6/J mice; details: 1.0 or 10 mg/kg i.p., male mice
Description: Fresh bedding and environmental enrichment were provided weekly.

[26] = in vivo; details: both, C57BL/6JRJ, mouse, 5 mg/kg

T1 sequence (P23975 whole entry): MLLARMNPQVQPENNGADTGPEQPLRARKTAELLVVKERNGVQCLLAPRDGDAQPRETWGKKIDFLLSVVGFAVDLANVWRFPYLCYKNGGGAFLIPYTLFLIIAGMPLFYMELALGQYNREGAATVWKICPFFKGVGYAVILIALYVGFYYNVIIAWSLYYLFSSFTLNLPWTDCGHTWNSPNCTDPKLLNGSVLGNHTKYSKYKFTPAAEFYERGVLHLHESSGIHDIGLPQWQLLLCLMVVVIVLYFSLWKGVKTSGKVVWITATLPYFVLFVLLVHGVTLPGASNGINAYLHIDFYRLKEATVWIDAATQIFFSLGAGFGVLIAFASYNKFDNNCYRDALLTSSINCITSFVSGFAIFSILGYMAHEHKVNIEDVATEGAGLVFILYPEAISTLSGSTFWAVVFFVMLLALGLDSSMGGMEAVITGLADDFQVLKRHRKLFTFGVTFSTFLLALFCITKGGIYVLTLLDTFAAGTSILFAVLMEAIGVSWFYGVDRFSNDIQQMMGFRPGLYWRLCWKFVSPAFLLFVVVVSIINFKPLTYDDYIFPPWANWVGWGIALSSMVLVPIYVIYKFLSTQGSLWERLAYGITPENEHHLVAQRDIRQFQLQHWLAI
T2 sequence (Q01959 whole entry): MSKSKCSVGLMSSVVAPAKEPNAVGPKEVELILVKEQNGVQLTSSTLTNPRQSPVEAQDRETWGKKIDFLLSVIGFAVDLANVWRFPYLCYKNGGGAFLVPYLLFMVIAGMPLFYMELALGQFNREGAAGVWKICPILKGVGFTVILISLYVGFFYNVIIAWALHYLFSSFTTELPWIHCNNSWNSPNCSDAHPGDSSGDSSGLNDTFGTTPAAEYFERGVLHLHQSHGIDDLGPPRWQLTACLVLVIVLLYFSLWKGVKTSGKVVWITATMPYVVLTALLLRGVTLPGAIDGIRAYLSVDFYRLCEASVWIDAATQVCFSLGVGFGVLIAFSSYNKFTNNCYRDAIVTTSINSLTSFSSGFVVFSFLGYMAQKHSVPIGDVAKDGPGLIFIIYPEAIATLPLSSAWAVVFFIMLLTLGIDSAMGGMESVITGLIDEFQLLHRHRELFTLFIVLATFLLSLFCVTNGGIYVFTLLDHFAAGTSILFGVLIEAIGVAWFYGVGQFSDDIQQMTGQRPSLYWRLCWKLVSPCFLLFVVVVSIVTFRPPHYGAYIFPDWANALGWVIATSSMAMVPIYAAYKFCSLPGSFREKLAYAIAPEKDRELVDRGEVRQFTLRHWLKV
T3 sequence (P31645 whole entry): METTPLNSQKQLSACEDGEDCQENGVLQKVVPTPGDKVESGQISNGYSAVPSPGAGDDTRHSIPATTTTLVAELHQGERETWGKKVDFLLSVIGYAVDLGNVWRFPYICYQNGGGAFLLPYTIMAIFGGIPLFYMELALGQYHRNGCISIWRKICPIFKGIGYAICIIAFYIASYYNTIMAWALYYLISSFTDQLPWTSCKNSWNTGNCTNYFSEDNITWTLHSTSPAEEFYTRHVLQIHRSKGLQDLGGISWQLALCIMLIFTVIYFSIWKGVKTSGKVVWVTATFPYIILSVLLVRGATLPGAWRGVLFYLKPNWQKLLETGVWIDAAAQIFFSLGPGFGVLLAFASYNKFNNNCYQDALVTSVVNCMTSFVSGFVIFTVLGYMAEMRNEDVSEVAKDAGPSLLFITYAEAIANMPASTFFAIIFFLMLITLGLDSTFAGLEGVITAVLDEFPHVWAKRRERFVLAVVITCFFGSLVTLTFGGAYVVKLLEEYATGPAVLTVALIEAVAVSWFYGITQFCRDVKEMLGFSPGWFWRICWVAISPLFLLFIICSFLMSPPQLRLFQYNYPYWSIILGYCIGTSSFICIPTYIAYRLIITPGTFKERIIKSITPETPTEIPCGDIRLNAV
T4 sequence (Q99720 whole entry, species assumed): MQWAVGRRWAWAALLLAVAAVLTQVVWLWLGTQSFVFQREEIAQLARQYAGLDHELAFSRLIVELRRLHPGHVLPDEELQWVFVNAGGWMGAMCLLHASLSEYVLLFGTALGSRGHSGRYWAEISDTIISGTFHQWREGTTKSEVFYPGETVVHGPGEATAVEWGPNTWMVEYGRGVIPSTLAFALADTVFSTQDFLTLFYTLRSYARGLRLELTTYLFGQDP
T9 sequence (P21728 whole entry): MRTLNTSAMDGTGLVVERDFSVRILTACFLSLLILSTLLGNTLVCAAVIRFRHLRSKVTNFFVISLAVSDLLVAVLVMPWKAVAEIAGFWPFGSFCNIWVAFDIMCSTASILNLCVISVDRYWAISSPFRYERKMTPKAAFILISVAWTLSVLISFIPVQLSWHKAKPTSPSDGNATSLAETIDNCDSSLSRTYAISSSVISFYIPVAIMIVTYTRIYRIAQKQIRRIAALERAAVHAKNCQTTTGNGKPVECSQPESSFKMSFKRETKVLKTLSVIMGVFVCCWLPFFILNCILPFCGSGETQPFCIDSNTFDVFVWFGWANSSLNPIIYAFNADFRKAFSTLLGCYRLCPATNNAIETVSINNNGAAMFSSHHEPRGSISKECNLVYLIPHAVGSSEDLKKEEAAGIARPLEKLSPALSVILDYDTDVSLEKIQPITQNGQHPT
T21 sequence (P28223 whole entry): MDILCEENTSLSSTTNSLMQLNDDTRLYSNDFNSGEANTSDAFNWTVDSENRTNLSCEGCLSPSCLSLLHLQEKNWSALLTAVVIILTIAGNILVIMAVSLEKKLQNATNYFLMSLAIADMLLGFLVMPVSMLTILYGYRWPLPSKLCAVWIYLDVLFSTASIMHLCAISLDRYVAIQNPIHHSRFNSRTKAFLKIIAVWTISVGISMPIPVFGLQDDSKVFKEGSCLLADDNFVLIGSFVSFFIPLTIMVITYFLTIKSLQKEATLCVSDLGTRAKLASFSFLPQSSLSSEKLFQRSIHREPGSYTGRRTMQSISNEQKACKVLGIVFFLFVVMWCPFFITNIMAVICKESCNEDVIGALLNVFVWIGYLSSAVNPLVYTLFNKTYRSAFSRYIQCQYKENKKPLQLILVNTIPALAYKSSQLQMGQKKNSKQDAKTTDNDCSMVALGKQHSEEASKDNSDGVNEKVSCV
T8 sequence (P23415 29-457): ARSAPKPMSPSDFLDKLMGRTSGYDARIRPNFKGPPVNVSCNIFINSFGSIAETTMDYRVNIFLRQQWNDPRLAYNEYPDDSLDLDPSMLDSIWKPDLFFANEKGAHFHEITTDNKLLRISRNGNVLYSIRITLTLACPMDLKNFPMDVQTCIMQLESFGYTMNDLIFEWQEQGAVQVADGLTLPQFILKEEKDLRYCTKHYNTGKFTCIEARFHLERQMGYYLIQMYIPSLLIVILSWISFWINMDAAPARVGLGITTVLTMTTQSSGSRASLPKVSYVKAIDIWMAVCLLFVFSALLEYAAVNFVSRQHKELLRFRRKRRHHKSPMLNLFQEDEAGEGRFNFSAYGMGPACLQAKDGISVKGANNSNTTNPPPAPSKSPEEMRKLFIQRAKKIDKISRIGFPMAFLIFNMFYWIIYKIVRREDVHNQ
T11 sequence (P14416 whole entry): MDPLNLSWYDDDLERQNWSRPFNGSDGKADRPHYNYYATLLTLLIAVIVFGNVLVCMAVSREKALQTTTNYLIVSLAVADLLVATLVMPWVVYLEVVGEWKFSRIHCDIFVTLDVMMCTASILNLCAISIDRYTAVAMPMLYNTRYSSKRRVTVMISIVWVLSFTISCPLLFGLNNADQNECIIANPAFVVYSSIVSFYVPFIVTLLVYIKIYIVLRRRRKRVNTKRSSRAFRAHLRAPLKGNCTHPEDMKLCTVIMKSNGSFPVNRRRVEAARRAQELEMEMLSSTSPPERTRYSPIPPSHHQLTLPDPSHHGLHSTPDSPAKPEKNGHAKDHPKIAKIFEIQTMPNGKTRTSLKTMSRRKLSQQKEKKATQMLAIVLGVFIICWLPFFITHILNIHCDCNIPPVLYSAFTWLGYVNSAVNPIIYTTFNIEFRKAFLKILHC
T18 sequence (P08172 whole entry): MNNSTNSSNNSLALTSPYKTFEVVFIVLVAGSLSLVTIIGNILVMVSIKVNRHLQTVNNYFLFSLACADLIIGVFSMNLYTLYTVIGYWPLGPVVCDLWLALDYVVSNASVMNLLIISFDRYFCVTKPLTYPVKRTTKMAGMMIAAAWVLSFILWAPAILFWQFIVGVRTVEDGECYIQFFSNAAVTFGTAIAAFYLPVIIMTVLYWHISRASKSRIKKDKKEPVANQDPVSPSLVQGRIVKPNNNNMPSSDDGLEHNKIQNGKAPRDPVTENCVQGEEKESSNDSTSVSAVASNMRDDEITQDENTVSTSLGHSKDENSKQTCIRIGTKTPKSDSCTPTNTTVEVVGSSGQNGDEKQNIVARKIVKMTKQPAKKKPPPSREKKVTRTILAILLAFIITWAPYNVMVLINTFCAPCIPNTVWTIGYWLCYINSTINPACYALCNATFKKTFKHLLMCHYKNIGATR
T7 sequence (P34972 whole entry): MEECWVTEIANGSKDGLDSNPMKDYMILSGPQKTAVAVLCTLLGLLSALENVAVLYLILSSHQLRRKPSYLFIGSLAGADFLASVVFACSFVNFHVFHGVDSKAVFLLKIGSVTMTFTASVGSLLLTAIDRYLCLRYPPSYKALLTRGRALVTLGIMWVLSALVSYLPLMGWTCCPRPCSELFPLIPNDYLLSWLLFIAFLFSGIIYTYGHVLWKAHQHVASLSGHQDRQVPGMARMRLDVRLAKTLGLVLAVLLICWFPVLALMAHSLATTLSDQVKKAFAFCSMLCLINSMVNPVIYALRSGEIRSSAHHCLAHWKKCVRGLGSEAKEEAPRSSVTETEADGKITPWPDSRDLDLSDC

## c1ccc(CN2CCC[C@H]3NCCCC[C@@H]32)cc1 (relative stereo) [27b, 1-Benzyldecahydro-1H-pyrido[3,2-b]azepine]
[1]
  inhibition at 10 µM: -5.1%
[2]
  inhibition at 10 µM: 19.4%
[3]
  inhibition at 10 µM: 6.9%

## (3aR,8aR)-4-(2,3-Dichlorobenzyl)decahydropyrrolo[3,2-b]azepine [(R,R)-62]
[1]
  % Inhibition @ 10 nM on NET: 74.8%
  % Inhibition @ 100 nM on NET: 96.4%
[2]
  % Inhibition @ 100 nM on DAT: 15.4%
[3]
  % Inhibition @ 100 nM on SERT: 97.8%

## COc1ccc(C(CN(C)C)C2(O)CCCCC2)cc1 (stereo not shown) [Venla, venlafaxine]
[4]
  IC50: 1340 ± 128 nM

## (3aR,8aR)-4-(3,5-Dichlorobenzyl)decahydropyrrolo[3,2-b]azepine [(R,R)-63]
[1]
  % Inhibition @ 10 nM on NET: 63.4%
  % Inhibition @ 100 nM on NET: 93.7%
[2]
  % Inhibition @ 100 nM on DAT: 89%
[3]
  % Inhibition @ 100 nM on SERT: 99.7%

## Clc1ccc(CN2CCCC[C@H]3NCC[C@H]32)cc1 [(R,R)-58, (3aR,8aR)-4-(4-Chlorobenzyl)decahydropyrrolo[3,2-b]azepine]
[1]
  inhibition at 0.01 µM: -15.2%
  inhibition at 0.1 µM: 6.4%
[2]
  inhibition at 0.1 µM: 12%
[3]
  inhibition at 0.1 µM: 78.2%

## c1ccc(CN2CCCC[C@H]3NCC[C@H]32)cc1 [(R,R)-1a, (3aR,8aR)-4-Benzyldecahydropyrrolo[3,2-b]azepine]
[2]
  IC50: 230 ± 12 nM
  inhibition at 0.1 µM: 29.8%
  inhibition at 10 µM: 97.2%
[3]
  IC50: 250 ± 32 nM
  inhibition at 0.1 µM: 26.3%
  inhibition at 10 µM: 95.9%
[5]
  IC50: ~110 nM and 110 nM
[6]
  ACHe (5 µM): 3.8
[7]
  Cannabinoid (5 µM): -13.4
[8]
  Cannabinoid 2 (5 µM): 11.9
[9]
  HEK-Gly-RA1 (5 µM): 4
[10]
  Dopamine D1 (5 µM): 3.5
[11]
  Dopamine D2s (5 µM): 11.7
[12]
  Dopamine D2L (5 µM): -0.3
[13]
  Dopamine D3 (5 µM): 6.1
[14]
  hERG (5 µM): 12.2
[15]
  Histaminic H1 (5 µM): -4.3
[16]
  Histaminic H2: -2
[17]
  Histaminic H3 (5 µM): 8.6
[18]
  Muscarinic M1 (5 µM): 78.7
[19]
  Muscarinic M2 (5 µM): 28.5
[20]
  Serotonin 5-HT 1A (5 µM): 18.9
[21]
  Serotonin 5-HT 1B (5 µM): -19.8
[22]
  Serotonin 5-HT 2A (5 µM): -0.9
[23]
  Serotonin 5-HT 2B (5 µM): 29.7
[24]
  Serotonin 5-HT 3 (5 µM): 5.2
[25]; already after 40 min
  phenotype upon acute treatment: pronounced sedative or lethargic phenotype
[25]
  signs of acute toxicity (piloerection, hunched posture, convulsions, gastrointestinal distress): no signs of acute toxicity
[26]; iv
  AUC: 799 ng·h/mL
[26]; po
  AUC: 36.6 ng·h/mL
  Tmax: 15 min

## c1ccc(CN2CCCC[C@@H]3NCCCC[C@H]32)cc1 [44b, 6-Benzyldodecahydroazepino[3,2-b]azepine]
[1]
  inhibition at 10 µM: 31.5%
[2]
  inhibition at 10 µM: 74.9%
[3]
  inhibition at 10 µM: 59.4%

## Clc1ccc2c(c1)C(N1CCNCC1)=Nc1ccccc1O2 [Amox, amoxapine]
[4]
  IC50: 11 ± 2.3 nM

## c1ccc(CN2CCCC[C@H]3NCCC[C@H]32)cc1 [40a, 5-Benzyldecahydro-1H-pyrido[3,2-b]azepine]
[1]
  inhibition at 10 µM: 88.7%
[2]
  inhibition at 10 µM: 94.4%
[3]
  inhibition at 10 µM: 91%

## Clc1cccc(CN2CCCC[C@H]3NCC[C@H]32)c1 [(R,R)-59, (3aR,8aR)-4-(3-chlorobenzyl)decahydropyrrolo[3,2-b]azepine]
[1]
  inhibition at 0.01 µM: 55.9%
  inhibition at 0.1 µM: 97.1%
[2]
  inhibition at 0.1 µM: 74.9%
[3]
  inhibition at 0.1 µM: 98%

## c1ccc(CN2CC[C@H]3NCCCC[C@@H]32)cc1 (relative stereo) [17b, 1-Benzyldecahydropyrrolo[3,2-b]azepine]
[1]
  inhibition at 10 µM: 10.8%
[2]
  inhibition at 10 µM: 89%
[3]
  inhibition at 10 µM: 13.7%

## c1ccc(CN2CC[C@H]3NCCCC[C@H]32)cc1 (relative stereo) [17a, 1-Benzyldecahydropyrrolo[3,2-b]azepine]
[1]
  inhibition at 10 µM: 21.7%
[2]
  inhibition at 10 µM: 78.3%
[3]
  inhibition at 10 µM: 21.4%

## C1CC[C@@H]2NCC[C@H]2NC1 (relative stereo) [2b, Decahydropyrrolo[3,2-b]azepine]
[1]
  inhibition at 10 µM: 3%
[2]
  inhibition at 10 µM: 13.6%
[3]
  inhibition at 10 µM: -1.9%

## Clc1ccccc1CN1CCCC[C@H]2NCC[C@H]21 [(R,R)-60, (3aR,8aR)-4-(2-Chlorobenzyl)decahydropyrrolo[3,2-b]azepine]
[1]
  inhibition at 0.01 µM: 24%
  inhibition at 0.1 µM: 83.4%
[2]
  inhibition at 0.1 µM: 37.5%
[3]
  inhibition at 0.1 µM: 69.1%

## C1CC[C@@H]2NCCC[C@H]2NC1 (relative stereo) [3b]
[1]
  inhibition at 10 µM: 8.8%
[2]
  inhibition at 10 µM: -5.2%
[3]
  inhibition at 10 µM: 11.8%

## c1ccc(CN2CCC[C@H]3NCCCC[C@H]32)cc1 (relative stereo) [27a, 1-Benzyldecahydro-1H-pyrido[3,2-b]azepine]
[1]
  inhibition at 10 µM: 13.9%
[2]
  inhibition at 10 µM: 85.5%
[3]
  inhibition at 10 µM: 87.7%

## c1ccc(CN2CCCC[C@@H]3NCC[C@H]32)cc1 [1b, 4-Benzyldecahydropyrrolo[3,2-b]azepine]
[2]
  inhibition at 10 µM: 81.8%
[3]
  inhibition at 10 µM: 68.6%

## C1CCC2NCCCCC2NC1 (stereo not shown) [4b, Dodecahydroazepino[3,2-b]azepine]
[1]
  inhibition at 10 µM: -7.1%
[2]
  inhibition at 10 µM: -0.5%
[3]
  inhibition at 10 µM: -1%

## C1CC[C@H]2NCC[C@H]2NC1 (relative stereo) [2a, Decahydropyrrolo[3,2-b]azepine]
[1]
  inhibition at 10 µM: 1.7%
[2]
  inhibition at 10 µM: 6.4%
[3]
  inhibition at 10 µM: 7.6%

## Brc1cccc(CN2CCCC[C@H]3NCC[C@H]32)c1 [(R,R)-61, (3aR,8aR)-4-(3-Bromobenzyl)decahydropyrrolo[3,2-b]azepine]
[1]
  inhibition at 0.01 µM: 56.7%
  inhibition at 0.1 µM: 91.4%
[2]
  inhibition at 0.1 µM: 58%
[3]
  inhibition at 0.1 µM: 96.9%

## c1ccc(CN2CCCC[C@@H]3NCCC[C@H]32)cc1 [40b, 5-Benzyldecahydro-1H-pyrido[3,2-b]azepine]
[1]
  inhibition at 10 µM: 60%
[2]
  inhibition at 10 µM: 41%
[3]
  inhibition at 10 µM: 71%

## c1ccc(CN2CCCC[C@@H]3NCC[C@@H]32)cc1 [(S,S)-1a, (3aS,8aS)-4-Benzyldecahydropyrrolo[3,2-b]azepine]
[2]
  inhibition at 10 µM: 94.4%
[3]
  inhibition at 10 µM: 91%
